Columns and labels:
[1] = tested on: GSPII-B domain Q190E Q218E double mutant; set-up: method as in PMID 39615687; settings: in vitro, pH 7.5; cited from earlier work
PilF159-302 Q190E = biological target: T1, PilF159-302 Q190E (Thermus thermophilus, UniProt Q72H73, Q190E); assay: ITC c-di-GMP binding to Q190E mutant, pH series; settings: 20 °C
T1 sequence (Q72H73 159-302 Q190E): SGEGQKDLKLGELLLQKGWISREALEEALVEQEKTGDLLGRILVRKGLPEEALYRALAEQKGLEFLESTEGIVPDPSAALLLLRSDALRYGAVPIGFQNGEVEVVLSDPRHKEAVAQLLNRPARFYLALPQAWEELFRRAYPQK
Text: To characterize c-di-GMP binding by PilF159-302, the Q190E and Q218E constructs via isothermal titration calorimetry (ITC) and X-ray crystallography unlabeled c-di-GMP was synthesized using a constitutively active mutant of a diguanylate cyclase from the thermophilic bacterium Thermogata maritima ^[4^4,4^5]. For NMR experiments ^13C,^15N labelled c-di-GMP was synthesized identically using ^13C,^15N labelled GTP as a substrate.
c-di-GMP binding capabilities of PilF159-302, its mutant constructs PilF159-302 Q190E and PilF159-302 Q218E at varying pH-values were investigated by isothermal titration calorimetry (ITC) experiments in triplicate. All measurements were conducted at 20 °C using a MicroCal ITC200 (Malvern Panalytical, UK). For PilF159-302 Q190E and PilF159-302 Q218E ITC-measurements were conducted in a pH range from pH 8.5 – 4.0 with the buffering agent adjusted to the respective pH-range. For the pH-range 8.5 – 7.5 a sample buffer of 50 mM Tris, 200 mM NaCl and 1 mM β-Me was used. For pH values 7.0 – 6.0 a sample buffer of 50 mM BisTris, 200 mM NaCl, 1 mM β-Me and for pH 5.5 – 4.0 a sample buffer of 50 mM NaAc, 200 mM NaCl, 1 mM β-Me was used. For reference PilF159-302 was titrated with c-di-GMP at pH 8.5 in 50 mM Tris pH 8.5, 200 mM NaCl, 1 mM β-Me and at pH 4.0 in 50 mM NaAc pH 4.0, 200 mM NaCl, 1 mM β-Me. In order to test whether the buffer reagents have an influence on the measured thermodynamic parameters, cross measurements were performed in the region of the pH transitions. To this end, additional measurements with BisTris at pH 7.5 and 5.5, with Tris at pH 7.0 and with NaAc at pH 6.0 were carried out as singlets. The buffer agents had no influence on measured KD-values and resulted only in small changes of the ΔH values. All protein samples were dialyzed two times against 500 ml of the respective sample buffer (1 L in total) at 4 °C for at least 16 hours per step using a dialysis chamber with a nominal 3.5 kDa molecular weight cutoff (ZelluTrans, ROTH). To prepare the ITC-measurements protein and c-di-GMP sample were adjusted to the respective concentration using the dialysis buffer. Protein and c-di-GMP concentration ranged from 20 to 50 µM (protein) and 200 to 500 µM (c-di-GMP) depending on the c-di-GMP binding capabilities at the different pH-values to optimize precision of the measurements. For pH 8.5 – 7.0 a protein concentration of 50 µM with 500 µM c-di-GMP was used. For pH 6.5 – 5.0 a protein concentration of 30 µM with 300 µM c-di-GMP and for pH 4.5 – 4.0 a protein concentration of 20 µM with 200 µM c-di-GMP was used. The following protocol was utilized for each measurement. To 270 µl protein a total of 40 µl c-di-GMP was titrated in 21 injections with a duration of 4 s in intervals of 180 s with a stirring speed of 750 rpm. The first injection of 0.2 µl c-di-GMP with a duration of 0.4 s was carried out after an initial delay of 120 s, which was followed by 20 injections of 2 µl each with a duration of 4 s. During the measurement, the feedback mode was set to high and the reference power to 11 µcal s^-1. All thermograms were processed using Origin 7.0 (OriginLab) using the one-site binding model.

PilF159-221 = tested on: PilF159-221; set-up: method as in PMID 39615687; settings: cited from earlier work
[2] = Bis-Tris, pH 5.5, buffer cross measurement, singlet
[3] = Bis-Tris, pH 7.5, buffer cross measurement, singlet
[4] = Na-Acetate, pH 6.0, buffer cross measurement, singlet
[5] = Tris, pH 7.0, buffer cross measurement, singlet

Nc1nc2c(ncn2C2OC3COP(=O)(O)OC4C(COP(=O)(O)OC3C2O)OC(n2cnc3c(=O)[nH]c(N)nc32)C4O)c(=O)[nH]1 (centres unmarked) [c-di-GMP]
c-di-GMP binding [1]: did not bind | -TΔS (PilF159-302 Q190E; [2]): -10.6 kJ/mol | Kd (PilF159-302 Q190E; [2]): 0.071 µM | ΔG (PilF159-302 Q190E; [2]): -40.1 kJ/mol | ΔH (PilF159-302 Q190E; [2]): -29.5 kJ/mol | -TΔS (PilF159-302 Q190E; Bis-Tris, pH 6.0): -14.4 ± 0.21 kJ/mol | Kd (PilF159-302 Q190E; Bis-Tris, pH 6.0): 0.067 ± 0.003 µM | N (PilF159-302 Q190E; Bis-Tris, pH 6.0): 0.96 ± 0.01 | ΔG (PilF159-302 Q190E; Bis-Tris, pH 6.0): -39.3 ± 0.084 kJ/mol | ΔH (PilF159-302 Q190E; Bis-Tris, pH 6.0): -25 ± 0.21 kJ/mol | -TΔS (PilF159-302 Q190E; Bis-Tris, pH 6.5): -14.9 ± 0.837 kJ/mol | Kd (PilF159-302 Q190E; Bis-Tris, pH 6.5): 0.16 ± 0.034 µM | N (PilF159-302 Q190E; Bis-Tris, pH 6.5): 0.72 ± 0.12 | ΔG (PilF159-302 Q190E; Bis-Tris, pH 6.5): -38.2 ± 0.544 kJ/mol | ΔH (PilF159-302 Q190E; Bis-Tris, pH 6.5): -23.3 ± 0.38 kJ/mol | -TΔS (PilF159-302 Q190E; Bis-Tris, pH 7.0): -17.3 ± 0.962 kJ/mol | Kd (PilF159-302 Q190E; Bis-Tris, pH 7.0): 0.236 ± 0.008 µM | N (PilF159-302 Q190E; Bis-Tris, pH 7.0): 0.98 ± 0.01 | ΔG (PilF159-302 Q190E; Bis-Tris, pH 7.0): -37.2 ± 0.084 kJ/mol | ΔH (PilF159-302 Q190E; Bis-Tris, pH 7.0): -19.9 ± 0.879 kJ/mol | -TΔS (PilF159-302 Q190E; [3]): -10.5 kJ/mol | Kd (PilF159-302 Q190E; [3]): 0.505 µM | ΔG (PilF159-302 Q190E; [3]): -35.3 kJ/mol | ΔH (PilF159-302 Q190E; [3]): -24.8 kJ/mol | -TΔS (PilF159-302 Q190E; Na-Acetate, pH 4.0): -10.8 ± 1.55 kJ/mol | Kd (PilF159-302 Q190E; Na-Acetate, pH 4.0): 0.04 ± 0.013 µM | N (PilF159-302 Q190E; Na-Acetate, pH 4.0): 0.98 ± 0.01 | ΔG (PilF159-302 Q190E; Na-Acetate, pH 4.0): -41.7 ± 0.92 kJ/mol | ΔH (PilF159-302 Q190E; Na-Acetate, pH 4.0): -30.8 ± 0.711 kJ/mol | -TΔS (PilF159-302 Q190E; Na-Acetate, pH 4.5): -9.5 ± 3.64 kJ/mol | Kd (PilF159-302 Q190E; Na-Acetate, pH 4.5): 0.042 ± 0.013 µM | N (PilF159-302 Q190E; Na-Acetate, pH 4.5): 0.95 ± 0.13 | ΔG (PilF159-302 Q190E; Na-Acetate, pH 4.5): -41.5 ± 0.753 kJ/mol | ΔH (PilF159-302 Q190E; Na-Acetate, pH 4.5): -32 ± 4.1 kJ/mol | -TΔS (PilF159-302 Q190E; Na-Acetate, pH 5.0): -1.13 ± 2.13 kJ/mol | Kd (PilF159-302 Q190E; Na-Acetate, pH 5.0): 0.078 ± 0.011 µM | N (PilF159-302 Q190E; Na-Acetate, pH 5.0): 0.91 ± 0.04 | ΔG (PilF159-302 Q190E; Na-Acetate, pH 5.0): -39.9 ± 0.38 kJ/mol | ΔH (PilF159-302 Q190E; Na-Acetate, pH 5.0): -38.8 ± 1.8 kJ/mol | -TΔS (PilF159-302 Q190E; Na-Acetate, pH 5.5): -4.64 ± 0.669 kJ/mol | Kd (PilF159-302 Q190E; Na-Acetate, pH 5.5): 0.074 ± 0.008 µM | N (PilF159-302 Q190E; Na-Acetate, pH 5.5): 1.02 ± 0.02 | ΔG (PilF159-302 Q190E; Na-Acetate, pH 5.5): -40 ± 0.29 kJ/mol | ΔH (PilF159-302 Q190E; Na-Acetate, pH 5.5): -35.7 ± 0.17 kJ/mol | -TΔS (PilF159-302 Q190E; [4]): -2.05 kJ/mol | Kd (PilF159-302 Q190E; [4]): 0.096 µM | ΔG (PilF159-302 Q190E; [4]): -39.4 kJ/mol | ΔH (PilF159-302 Q190E; [4]): -37.4 kJ/mol | -TΔS (PilF159-302 Q190E; [5]): -25.5 kJ/mol | Kd (PilF159-302 Q190E; [5]): 0.223 µM | ΔG (PilF159-302 Q190E; [5]): -37.3 kJ/mol | ΔH (PilF159-302 Q190E; [5]): -11.8 kJ/mol | -TΔS (PilF159-302 Q190E; Tris, pH 7.5): -19.4 ± 0.795 kJ/mol | Kd (PilF159-302 Q190E; Tris, pH 7.5): 0.511 ± 0.013 µM | N (PilF159-302 Q190E; Tris, pH 7.5): 0.95 ± 0.09 | ΔG (PilF159-302 Q190E; Tris, pH 7.5): -35.3 ± 0.084 kJ/mol | ΔH (PilF159-302 Q190E; Tris, pH 7.5): -15.9 ± 0.837 kJ/mol | -TΔS (PilF159-302 Q190E; Tris, pH 8.0): -14.1 ± 2.72 kJ/mol | Kd (PilF159-302 Q190E; Tris, pH 8.0): 0.729 ± 0.044 µM | N (PilF159-302 Q190E; Tris, pH 8.0): 0.84 ± 0.17 | ΔG (PilF159-302 Q190E; Tris, pH 8.0): -34.4 ± 0.17 kJ/mol | ΔH (PilF159-302 Q190E; Tris, pH 8.0): -20.4 ± 2.85 kJ/mol | -TΔS (PilF159-302 Q190E; Tris, pH 8.5): -10.5 ± 0.837 kJ/mol | Kd (PilF159-302 Q190E; Tris, pH 8.5): 0.798 ± 0.039 µM | N (PilF159-302 Q190E; Tris, pH 8.5): 0.86 ± 0.09 | ΔG (PilF159-302 Q190E; Tris, pH 8.5): -34.2 ± 0.13 kJ/mol | ΔH (PilF159-302 Q190E; Tris, pH 8.5): -23.7 ± 0.711 kJ/mol | c-di-GMP binding affinity of subdomain relative to full-length domain (PilF159-221): comparable
